# In US11278682B2, “Device and method for aerosolized delivery of substance to a natural orifice of the body” (SIPNOSE LTD., priority 2014, dated 2022):
# Where two headings read alike, the source gives them in different places.
# Tests used:
# [1] = SPECT-CT distribution of 99mTC-DTPA aerosol in nasal cavity and nasopharynx; format: in vivo; settings: human volunteer, 300 microliters, air volume 20 ml
# Method: The effects of air volume and air pressure on the distribution of 99mTC-DTPA aerosol in the nasal cavity and nasopharynx were examined using SPECT-CT for two human volunteers.
# In both cases, the deposited material comprised 300 microliters of DTPA; 1.75 mc (milli Ciri) and the air volume was 20 ml. A pressure of 6 barg was used for the results shown in FIG. 31A, while a pressure of 4 barg was used for the results shown in FIG. 31B.
# [2] = rat, in vivo
# Method: For most liquid drug formulations, the drugs are dissolved in, suspended in or mixed with water-based liquids. However, many of the cannabis derivatives that show promise as therapeutic agents, such as the cannabinoids, need to be dissolved in oil. Therefore, a study was done to investigate uptake to the brain of an oil-based formulation. For this study, Fluorescein was dissolved in oil and administered intranasally, via the SipNose device, to rats. Fluorescein was administered to the control animals intravenously.
# [3] = Brain absorption of insulin after SipNose nasal administration (quantitative ELISA); format: in vivo; settings: rabbit; 10 U/Kg via SipNose nasal administration; 1 h, 2 h, 3 h post administration
# Method: The substance in this experiment is Human Insulin (Lispro insulin, 5807 Da); the animal model is a rabbit. Administration was 10 U/Kg of Human Insulin via SipNose nasal administration. Brain concentrations were measured using insulin quantitative ELISA at 1 h, 2 h, and 3 h post administration.
# [4] = Blood and brain absorption of insulin, SipNose nasal vs IV administration; format: in vivo, rabbit; settings: rabbits, 0.5 U/kg
# Method: In FIG. 76A-C, the efficacy of delivery of insulin to the brain is compared for the SipNose device vs. IV administration. The substance was Lispro insulin (5,807 Da) administered to rabbits. Four rabbits were used; all animals were given 0.5 U/kg of Human Insulin. Administration was via IV for rabbits 1 and 3 and via SipNose nasal administration for rabbits 2 and 4. Brain concentrations were measured using insulin quantitative ELISA.
# [5] = rat, in vivo; remark: listed apart in the source
# Method: (§3) A total of 13 male Sprague-Dawley rats were utilized. The animals were divided into four treated groups of three rats and one group with one naïve control rat.
# (§4) The following tests were performed: • After sacrifice, gross pathology was performed, examining the nasal cavity (both sides, including the olfactory epithelium), the nasopharynx, paranasal sinus, trachea, lungs, brain (in several areas including the olfactory bulb), heart and larynx. • A histopathological evaluation of all groups of animals was made. • Blood was collected and plasma prepared 10, 30 and 90 min after the first and second administration and at termination.
# (§5) IN application was carried out using solution at a dose volume of 300 μl per naris or as a powder (in two formulations). In all cases the total dose per rat was 6 mg of Topiramate. Prior to application of the test material, lidocaine was applied locally to the outer area of the nostril in order to decrease the level of distress.
# (§6) Blood samples were collected into Li-Heparin tubes on ice, at 10, 30 and 90 min post first and second dosing. A blood volume of approximately 300 μl was obtained at each time point.
# (§7) Topiramate was administered to the relevant study groups twice, with a five hour interval between administrations.
# [6] = tested on: patients; settings: commercial use; cited from earlier work
# [7] = tested on: rats; test: Repeated Topiramate dosing: body weight and food consumption; format: in vivo, rat
# From the text: The study investigated repeated intra-nasal delivery of Topiramate, using SipNose's novel device, in order to evaluate its effect on food consumption, body weight, and behavior and to measure the concentrations of the drug in the brain and plasma, in comparison to oral administration. Also, the safety of repeated dosing was examined.
# The probability of appetite loss is a potential indicator for Topiramate. Food consumption was monitored during the experiment, and as the expectation was that food consumption will be reduced, care was taken in order to make sure it is not too dramatic or harmful to the animals.
# A total of 38 rats were utilized. Thirty six (36) rats were divided into four groups of nine animals in each group. Two animals were used as the naïve, untreated group.
# Topiramate was used in its original API form with no specific formulation. Topiramate was delivered to the nasal cavity either as a dry powder or as a solution of 10 mg/ml solubilized in Saline.
# Application was by means of a SipNose device (FIG. 105) configured for use in the nasal cavities of rats. In order to alleviate the discomfort animal might endured during IN administration, Lidocaine was locally applied on the nasal area, prior to placement of the SipNose's device.
# (§1) The study was performed according to the parameters of Table 31, for group allocation, and Table 32, for the study time-line. […] This provided a total of 1.56 mg per day per animal. For the liquid nasal samples, the administration was performed IN via SipNose's dedicated device at doses of 78 μL, from 10 mg/ml stock, or orally, after dilution to a dose volume of 200 μL. Food consumption was monitored two days before study initiation and daily during the study. Three (3) animals per group were sacrificed 45 minutes after the first dose of the first day, and six animals per group were sacrificed after 6 consecutive days of dosing, via CO2 asphyxiation.
# Body weight was recorded upon arrival, 2 days before study initiation and once a day thereafter.
# [8] = tested on: rats; settings: cited from earlier work
# [9] = tested on: rats; test: Repeated Topiramate dosing: histopathological evaluation; format: in vivo, rat; settings: all samples of all tissues examined, 6 days dosing
# Method: as §1
# (§2) Perfusion was performed under anesthesia with Isoflurane, using saline, for further PK examination of compounds in the brain.
# Animals were sacrificed 45 minutes after the first administration of Day 1 and the last administration of Day 6, following blood sampling of 400 μL, if required, as described below. Three (3) rats, sacrificed after the first dosing day, were perfused with saline for PK analysis of blood and brain. Animals sacrificed on the last day of the study (after one dose only) were divided into 2 groups: one animal in each cage was bled and perfused with saline, after which the brain was collected and frozen in liquid nitrogen for PK analysis. […] Inflammatory status was evaluated. […]
# [10] = tested on: Sprague-Dawley rats; test: Topiramate safety and toxicity study (food consumption, body weight, histopathology); format: in vivo, rat
# Method: A study was performed to evaluate the safety and toxicity, including adverse effects, of Topiramate following intranasal administration via a SipNose device to Sprague-Dawley (SD) rats. A dose 8 times the therapeutic dose was administered in order to determine the maximal tolerated dose. Doses used in this study were chosen to assess the safety of the approved drug given via the nose with an embodiment of a sipNose device.
# Animals were observed individually at least once during the first 30 minutes after dosing, with special attention during the first four hours and prior to termination. Observations included changes in skin and fur, eyes and mucous membranes, and also respiratory, circulatory, autonomic and central nervous systems, and somatomotor activity and behavior pattern.
# Body weight was monitored one day after the animals' arrival, prior to administration of the test material and before termination.
# Animals were sacrificed via carbon dioxide asphyxiation and gross pathology was performed, examining the major tissue and organ systems.
# Lungs were evaluated in both right and left lobes. All tissues were trimmed into block cassettes and sent to L.E.M for slide preparation and staining.
# [11] = in vivo; settings: male, Sprague-Dawley, rat, 6 mg; for half-life: Half-life (estimated)
# Method: as §3, §4, §5, §6, §7
# [12] = Repeated Topiramate dosing: plasma and brain concentrations; format: in vivo; settings: rat, 0.78 mg, rats
# Method: as §1, §2
# Animals were sacrificed 45 minutes after the first administration of Day 1 and the last administration of Day 6, following blood sampling of 400 μL, if required, as described below. Three (3) rats, sacrificed after the first dosing day, were perfused with saline for PK analysis of blood and brain. Animals sacrificed on the last day of the study ([…]) were divided into 2 groups: one animal in each cage was bled and perfused with saline, after which the brain was collected and frozen in liquid nitrogen for PK analysis. The second animal in the cage was sacrificed by CO2 asphyxiation and the nasal cavity (including the olfactory epithelium), nasopharynx, paranasal sinus, trachea, lungs, brain, heart and larynx were collected and fixed in 4% formaldehyde and Histopathological evaluation (H&E staining) was performed. Inflammatory status was evaluated. Slide preparation was followed by histopathological examination of the collected organs during scheduled termination and necropsy from all the animals. Tissues were trimmed, embedded in paraffin, sectioned at approximately five micron thickness and stained with Hematoxylin & Eosin (H&E).
compound,measurement,setting,value
O=C([O-])CN(CCN(CC(=O)[O-])CC(=O)[O-])CCN(CC(=O)[O-])CC(=O)[O-].[99Tc+4] [99mTC-DTPA],distribution of aerosol (SPECT-CT),[1]; pressure 4 barg,localized in the nasal cavity at the respiratory and olfactory epitheliums and also moved down into the Nasopharynx (upper dotted arrow) and into the GI tract
same,distribution of aerosol (SPECT-CT),[1]; pressure 6 barg,localized in the nasal cavity at the respiratory and olfactory epitheliums (dashed arrow) and did not reach the Nasopharynx and did not enter the GI tract
O=C1OC2(c3ccc(O)cc3Oc3cc(O)ccc32)c2ccccc21 [Fluorescein],distribution within the brain,[2],"distributed throughout the brain, rather than being concentrated in the cerebellum"
same,early deposition in the spinal cord,[2],considerably less early deposition
same,uptake to the brain vs I/V,[2],considerably more uptake to the brain
"Lispro Insulin: Human Insulin (Lispro insulin, 5807 Da)","delivery of insulin to the brain (brain concentration, ELISA)",[3],delivered to the brain with the SipNose device and can be specifically detected
same,distribution of insulin in parts of the brain,[4]; SipNose direct-nose-to-brain,Insulin in both anterior and posterior parts of the brain
same,efficiency of delivery to the brain compared to I/V,[4]; SipNose nasal vs IV,highly efficient when compared to I/V administration
CC1(C)O[C@@H]2[C@@H](CO[C@@]3(COS(N)(=O)=O)OC(C)(C)O[C@@H]23)O1 [Topiramate],lower plasma value 10 minutes after second vs first administration,"[5]; male, Sprague-Dawley, 10 min",26%
same,"plasma level 10 minutes after first administration, IN vs oral","[5]; male, Sprague-Dawley, 10 min",about twice the concentration found 10 minutes after oral administration
same,Half-life (estimated),"[5]; male, Sprague-Dawley, inhaled or intranasal, 6 mg",304 min
same,higher plasma value 10 minutes after second vs first administration,"[5]; male, Sprague-Dawley, po, 10 min",84%
same,plasma levels 18 hours after the second administration,[5],dropped to pre-administration levels
same,"patients with side effects such as somnolence, fatigue and dizziness",[6],over 10%
same,food consumption,[7]; Group 2M liquid Topiramate oral,increased food consumption
same,increase in body weight relative to all other treatment groups,"[7]; Group 2M, end of treatment period (day 6)",2 fold
same,increase in body weight during the treatment phase,"[7]; Group 2M, liquid Topiramate oral, 0.78 mg twice a day, 6 days",approximately 17%
same,food consumption,[7]; Group 3M liquid Topiramate IN SipNose,reduced food consumption
same,food consumption,[7]; Group 4M dry powder Topiramate IN SipNose,reduced food consumption
same,increase in body weight during the treatment phase,[7]; the other treatment groups (IN via SipNose),~8%
same,time for which ED50 is stable after oral administration,[8],8 h
same,histopathological findings after repeated dosing,[9],No major histopathological findings were observed
same,"Food consumption on Day 2, relative to naïve rats",[10]; rats treated IN with Topiramate liquid,98%
same,"Food consumption on Day 2, relative to naïve rats",[10]; rats treated by Topiramate powder IN,around 60%
same,"Food consumption on Day 2, relative to naïve rats",[10]; rats treated orally with Topiramate,91%
same,body weight change from study initiation to termination,"[10]; rats, all groups",relatively minor
same,drug-related pathological changes (histology),"[10]; rats, any animal, any investigated tissue, 6 mg twice, oral or IN",No drug-related pathological changes were detected
same,half-life,[11],45 min
same,half-life,[11]; inhaled or intranasal,259 min
same,AUC,"[11]; po, AUC (estimated)",11800 ng·h/mL
same,concentration at 45 min,"[12]; brain, other: IN (intranasal) via SipNose device, group 4M powder IN, read-out: Topiramate brain concentration following the 11th administration",1030 ± 172 ng/mL
same,concentration at 45 min,"[12]; plasma, other: IN (intranasal) via SipNose device, group 3M liquid IN, 45 minutes, read-out: Topiramate plasma concentration after the first administration",1510 ± 505 ng/mL
same,concentration at 45 min,"[12]; plasma, other: IN (intranasal) via SipNose device, group 4M powder IN, 45 minutes, read-out: Topiramate plasma concentration after the first administration",4140 ± 597 ng/mL
same,concentration at 45 min,"[12]; plasma, other: IN (intranasal) via SipNose device, group 4M powder IN, read-out: Topiramate plasma (blood) concentration following the 11th administration",1980 ± 256 ng/mL
same,concentration at 45 min,"[12]; plasma, po, group 2M liquid oral, 45 minutes, read-out: Topiramate plasma concentration after the first administration",2070 ± 228 ng/mL
